In patent US20230233569A1 (Revolution Medicines, Inc., priority 2020, published 2023) one finds IC50 data, which are given here for 10 compounds.

pIC50: −log10 of the molar value. A value given as a limit tells only on which side of the number the result lay.

As a reminder, the pIC50 is −log10 of the IC50, conventionally taken in molar units.

Common to all, as to experiment: Ras-Raf disruption / FRET / MOA assay (BRAF RBD)
Format in all cases: biochemical

One assay concerns the target KRAS G12D (Homo sapiens, UniProt P01116+P62937, G12D). Particulars: Ras-Raf disruption, with Cyclophilin A; read-out: KRAS G12D FRET data IC50. In a few lines: (§1)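 Compound-induced Ras–Cyclophilin A ternary complex disrupting BRAF RBD binding, read as IC50 from reduced TR-FRET ratio relative to DMSO. Final: Ras-GMPPNP 12.5 nM, BRAF RBD 50 nM, Cyclophilin A 25 μM, top compound 30 μM (3-fold, 10 points); 3 h at 25 °C, then 1.5 h with detection antibodies.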

The target in a further assay is KRAS G12S (Homo sapiens, UniProt P01116+P62937, G12S). Particulars: Ras-Raf disruption, with Cyclophilin A; read-out: KRAS G12S FRET data IC50. In a few lines:
as §1

In the next assay the target is KRAS G12V (Homo sapiens, UniProt P01116+P62937, G12V). Particulars: Ras-Raf disruption, with Cyclophilin A; read-out: KRAS G12V FRET data IC50. In a few lines:
as §1

A further assay has as its target KRAS G13C (Homo sapiens, UniProt P01116+P62937, G13C). Conditions: Ras-Raf disruption, with Cyclophilin A; read-out: KRAS G13C FRET data IC50. In a few lines: as §1
The next assay addresses KRAS G13D (Homo sapiens, UniProt P01116+P62937, G13D). Particulars: Ras-Raf disruption, with Cyclophilin A; read-out: KRAS G13D FRET data IC50. The method in brief: as §1
Another assay addresses KRAS Q61H (Homo sapiens, UniProt P01116+P62937, Q61H). Particulars: KRAS Q61H; read-out: KRAS Q61H FRET data IC50. The method in brief:
as §1

A further assay concerns the target KRAS WT (Homo sapiens, UniProt P01116+P62937). Conditions: Ras-Raf disruption, with Cyclophilin A; read-out: KRAS WT FRET data IC50. In a few lines: as §1
A further assay addresses NRAS G12C (Homo sapiens, UniProt P01111+P62937, G12C). Conditions: NRAS G12C; read-out: NRAS G12C FRET data IC50. The method in brief:
as §1

Another assay deals with NRAS Q61K (Homo sapiens, UniProt P01111+P62937, Q61K). Particulars: NRAS Q61K; read-out: NRAS Q61K FRET data IC50. In a few lines: as §1
A further assay concerns the target NRAS Q61R (Homo sapiens, UniProt P01111+P62937, Q61R). Conditions: NRAS Q61R; read-out: NRAS Q61R FRET data IC50. In a few lines: as §1
For a further assay, the target named is NRAS WT (Homo sapiens, UniProt P01111+P62937). Conditions: NRAS WT; read-out: NRAS WT FRET data IC50. In a few lines: as §1
For another assay, the target named is KRAS G12C (Homo sapiens, UniProt P01116+P62937, G12C). Conditions: Ras-Raf disruption, with Cyclophilin A; read-out: KRAS G12C FRET data IC50. The method in brief:
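TR-FRET read-out after 1.5 h with anti-His Eu-W1024 (10 nM) and anti-GST APC (50 nM), following 3 h at 25 °C of compound (top 30 μM, 3-fold, 10 points) with 25 μM Cyclophilin A, 12.5 nM GMPPNP-loaded K-Ras G12C and 50 nM BRAF RBD; IC50 reported.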

KRAS G12C, sequence (P01116 1-169 isoform P01116-2 G12C limits assumed): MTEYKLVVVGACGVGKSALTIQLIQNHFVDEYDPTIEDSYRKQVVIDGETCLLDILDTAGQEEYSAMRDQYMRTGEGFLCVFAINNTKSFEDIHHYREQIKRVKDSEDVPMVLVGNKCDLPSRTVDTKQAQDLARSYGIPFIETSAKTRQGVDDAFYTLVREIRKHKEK
KRAS G12C, sequence (P62937 whole entry): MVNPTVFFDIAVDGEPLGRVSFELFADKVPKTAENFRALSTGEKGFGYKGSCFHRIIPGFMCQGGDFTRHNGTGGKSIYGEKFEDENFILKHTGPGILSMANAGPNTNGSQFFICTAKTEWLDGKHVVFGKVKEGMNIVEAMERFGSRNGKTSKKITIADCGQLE
KRAS G13C, sequence (P01116 1-169 isoform P01116-2 G13C limits assumed): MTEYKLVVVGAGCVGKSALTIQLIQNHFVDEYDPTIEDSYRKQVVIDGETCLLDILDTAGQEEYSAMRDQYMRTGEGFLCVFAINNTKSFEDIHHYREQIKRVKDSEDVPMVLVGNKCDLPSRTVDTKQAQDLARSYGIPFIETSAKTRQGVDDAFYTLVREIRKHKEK
KRAS G13C, sequence (P62937 whole entry): as the sequence (P62937 whole entry) above
KRAS WT, sequence (P01116 1-169 isoform P01116-2 limits assumed): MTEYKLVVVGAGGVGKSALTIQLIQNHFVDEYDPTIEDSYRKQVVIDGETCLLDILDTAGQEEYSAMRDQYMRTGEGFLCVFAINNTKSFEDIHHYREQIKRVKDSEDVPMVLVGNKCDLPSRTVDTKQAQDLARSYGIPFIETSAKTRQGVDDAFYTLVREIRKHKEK
KRAS WT, sequence (P62937 whole entry): as the sequence (P62937 whole entry) above
KRAS G12D, sequence (P01116 1-169 isoform P01116-2 G12D limits assumed): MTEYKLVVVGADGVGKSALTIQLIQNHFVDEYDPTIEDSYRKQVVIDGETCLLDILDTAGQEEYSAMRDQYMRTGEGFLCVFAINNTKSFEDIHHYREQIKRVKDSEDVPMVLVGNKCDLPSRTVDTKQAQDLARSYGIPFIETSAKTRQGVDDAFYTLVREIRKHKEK
KRAS G12D, sequence (P62937 whole entry): as the sequence (P62937 whole entry) above
NRAS Q61R, sequence (P01111 whole entry Q61R): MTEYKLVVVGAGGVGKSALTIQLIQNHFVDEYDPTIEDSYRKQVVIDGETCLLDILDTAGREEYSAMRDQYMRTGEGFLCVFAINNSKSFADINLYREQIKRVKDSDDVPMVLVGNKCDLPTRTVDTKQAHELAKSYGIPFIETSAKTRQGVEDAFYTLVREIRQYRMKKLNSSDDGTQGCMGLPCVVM
NRAS Q61R, sequence (P62937 whole entry): as the sequence (P62937 whole entry) above
KRAS G12V, sequence (P01116 1-169 isoform P01116-2 G12V limits assumed): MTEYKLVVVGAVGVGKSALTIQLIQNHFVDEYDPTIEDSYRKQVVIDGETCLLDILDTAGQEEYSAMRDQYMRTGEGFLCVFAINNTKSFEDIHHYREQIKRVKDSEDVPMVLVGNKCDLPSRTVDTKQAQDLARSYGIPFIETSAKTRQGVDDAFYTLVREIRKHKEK
KRAS G12V, sequence (P62937 whole entry): as the sequence (P62937 whole entry) above
KRAS G12S, sequence (P01116 1-169 isoform P01116-2 G12S limits assumed): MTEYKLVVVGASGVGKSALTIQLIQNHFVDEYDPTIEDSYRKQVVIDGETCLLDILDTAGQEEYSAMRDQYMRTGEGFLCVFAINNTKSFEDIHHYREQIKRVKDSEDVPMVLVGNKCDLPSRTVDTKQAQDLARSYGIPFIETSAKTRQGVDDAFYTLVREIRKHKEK
KRAS G12S, sequence (P62937 whole entry): as the sequence (P62937 whole entry) above
NRAS G12C, sequence (P01111 whole entry G12C): as the sequence (P01111 whole entry Q61R) above, with G12C, R61Q counted along it
NRAS G12C, sequence (P62937 whole entry): as the sequence (P62937 whole entry) above
KRAS G13D, sequence (P01116 1-169 isoform P01116-2 G13D limits assumed): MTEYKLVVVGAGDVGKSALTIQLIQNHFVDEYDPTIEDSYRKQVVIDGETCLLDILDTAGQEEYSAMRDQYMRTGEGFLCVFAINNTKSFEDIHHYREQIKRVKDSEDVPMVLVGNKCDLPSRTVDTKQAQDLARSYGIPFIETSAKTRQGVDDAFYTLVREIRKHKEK
KRAS G13D, sequence (P62937 whole entry): as the sequence (P62937 whole entry) above
NRAS Q61K, sequence (P01111 whole entry Q61K): as the sequence (P01111 whole entry Q61R) above, with R61K counted along it
NRAS Q61K, sequence (P62937 whole entry): as the sequence (P62937 whole entry) above
NRAS WT, sequence (P01111 whole entry): as the sequence (P01111 whole entry Q61R) above, with R61Q counted along it
NRAS WT, sequence (P62937 whole entry): as the sequence (P62937 whole entry) above
KRAS Q61H, sequence (P01116 1-169 isoform P01116-2 Q61H limits assumed): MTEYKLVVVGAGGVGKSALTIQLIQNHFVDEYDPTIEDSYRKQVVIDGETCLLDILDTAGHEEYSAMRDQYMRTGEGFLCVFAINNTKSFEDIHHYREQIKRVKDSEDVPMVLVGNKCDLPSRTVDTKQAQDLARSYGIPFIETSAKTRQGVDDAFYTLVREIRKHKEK
KRAS Q61H, sequence (P62937 whole entry): as the sequence (P62937 whole entry) above

Regarding `CCn1c(-c2cccnc2[C@H](C)OC)c2c3cc(ccc31)-c1csc(n1)C[C@H](NC(=O)[C@H](C(C)C)N(C)C(=O)N1CC[C@H]1CN(C)C(=O)[C@@H]1CN1)C(=O)N1CCC[C@H](N1)C(=O)OCC(C)(C)C2` [Example 235], the pIC50 on KRAS G12D is 5.00 to 6.00; on KRAS G12S, 5.00 to 6.00; at KRAS G12V, 5.00 to 6.00; at KRAS G13C, 5.00 to 6.00; at KRAS G13D it was 5.00 to 6.00; on KRAS Q61H it was 6.00 to 7.00. For the same compound, the pIC50 on KRAS WT is 5.00 to 6.00; at NRAS G12C, 6.00 to 7.00; at NRAS Q61K, 6.00 to 7.00; at NRAS Q61R, 5.00 to 6.00; at NRAS WT, 5.00 to 6.00; at KRAS G12C it was 6.00 to 7.00.
With `CCn1c(-c2cccnc2[C@H](C)OC)c2c3cc(ccc31)-c1cc(O)cc(c1)C[C@H](NC(=O)[C@H](C(C)C)N(C)C(=O)[C@H]1CCCN(C(=O)[C@@H]3CN3)C1)C(=O)N1CCC[C@H](N1)C(=O)OCC(C)(C)C2` [Example 236], the pIC50 on KRAS G12D, on KRAS G12S, on KRAS G12V, at KRAS G13C, at KRAS G13D and on KRAS Q61H was 6.00 to 7.00 in each case. For the same compound, the pIC50 on KRAS WT was 6.00 to 7.00; on NRAS G12C it was 7.00 to 8.00; on NRAS Q61K, 5.00 to 6.00; on NRAS Q61R, 5.00 to 6.00; at NRAS WT, 6.00 to 7.00; at KRAS G12C it was 7.00 to 8.00.
On to `CCn1c(-c2cccnc2[C@H](C)OC)c2c3cc(ccc31)-c1cc(O)cc(c1)C[C@H](NC(=O)[C@H](C(C)C)N(C)C(=O)[C@@H]1CCCN(C(=O)[C@@H]3CN3)C1)C(=O)N1CCC[C@H](N1)C(=O)OCC(C)(C)C2` [Example 238], for which the pIC50 at KRAS G12D is 6.00 to 7.00; on KRAS G12S, 7.00 to 8.00; on KRAS G12V, 6.00 to 7.00; at KRAS G13C, 7.00 to 8.00; on KRAS G13D, 6.00 to 7.00; at KRAS Q61H it was 7.00 to 8.00. Further, the pIC50 on KRAS WT was 7.00 to 8.00; at NRAS G12C it was 7.00 to 8.00; at NRAS Q61K it was 6.00 to 7.00; at NRAS Q61R, 6.00 to 7.00; at NRAS WT, 7.00 to 8.00; at KRAS G12C, 7.00 to 8.00.
Take `CCn1c(-c2cccnc2[C@H](C)OC)c2c3cc(ccc31)-c1csc(n1)C[C@H](NC(=O)[C@H](C(C)C)N(C)C(=O)N1CCN(C(=O)[C@H]3CN3)[C@@H](C)C1)C(=O)N1CCC[C@H](N1)C(=O)OCC(C)(C)C2` [Example 297]: the pIC50 is 6.00 to 7.00 at KRAS G12D; 6.00 to 7.00 on KRAS G12S; 6.00 to 7.00 on KRAS G12V; 7.00 to 8.00 at KRAS G13C; 6.00 to 7.00 on KRAS G13D; 7.00 to 8.00 on KRAS Q61H. Also, the pIC50 on KRAS WT, on NRAS G12C, at NRAS Q61K, at NRAS Q61R, at NRAS WT and at KRAS G12C was 7.00 to 8.00 in each case.
With `CCn1c(-c2cccnc2[C@H](C)OC)c2c3cc(ccc31)-c1csc(n1)C[C@H](NC(=O)[C@H](C(C)C)N(C)C(=O)N1CCN(C(=O)[C@@H]3CN3)[C@@H](C)C1)C(=O)N1CCC[C@H](N1)C(=O)OCC(C)(C)C2` [Example 298], the pIC50 at KRAS G12D was 6.00 to 7.00; on KRAS G12S, 7.00 to 8.00; on KRAS G12V, 6.00 to 7.00; at KRAS G13C, 6.00 to 7.00; at KRAS G13D, 6.00 to 7.00; at KRAS Q61H it was 7.00 to 8.00. Moreover, the pIC50 on KRAS WT, on NRAS G12C, at NRAS Q61K, on NRAS Q61R, at NRAS WT and on KRAS G12C was 7.00 to 8.00 throughout.
Regarding `CCn1c(-c2cccnc2[C@H](C)OC)c2c3cc(ccc31)-c1csc(n1)C[C@H](NC(=O)[C@H](C(C)C)N(C)C(=O)N1CCN(C(=O)[C@H]3CN3)[C@H](C)C1)C(=O)N1CCC[C@H](N1)C(=O)OCC(C)(C)C2` [Example 299], the pIC50 is 6.00 to 7.00 at KRAS G12D; 6.00 to 7.00 on KRAS G12S; 6.00 to 7.00 at KRAS G12V; 6.00 to 7.00 at KRAS G13C; 6.00 to 7.00 on KRAS G13D; 7.00 to 8.00 on KRAS Q61H. For the same compound, the pIC50 at KRAS WT is 6.00 to 7.00; at NRAS G12C it was 7.00 to 8.00; on NRAS Q61K it was 7.00 to 8.00; on NRAS Q61R, 6.00 to 7.00; on NRAS WT, 6.00 to 7.00; on KRAS G12C it was 7.00 to 8.00.
Take `CCn1c(-c2cccnc2[C@H](C)OC)c2c3cc(ccc31)-c1csc(n1)C[C@H](NC(=O)[C@H](C(C)C)N(C)C(=O)N1CCN(C(=O)[C@@H]3CN3)[C@H](C)C1)C(=O)N1CCC[C@H](N1)C(=O)OCC(C)(C)C2` [Example 300]: the pIC50 on KRAS G12D is 6.00 to 7.00; at KRAS G12S, 6.00 to 7.00; on KRAS G12V, 6.00 to 7.00; at KRAS G13C it was 6.00 to 7.00; on KRAS G13D it was 6.00 to 7.00; at KRAS Q61H, 7.00 to 8.00. For the same compound, the pIC50 was 6.00 to 7.00 at KRAS WT; 7.00 to 8.00 at NRAS G12C; 7.00 to 8.00 at NRAS Q61K; 6.00 to 7.00 at NRAS Q61R; 6.00 to 7.00 at NRAS WT; 6.00 to 7.00 at KRAS G12C.
On to `CCn1c(-c2cccnc2[C@H](C)OC)c2c3cc(ccc31)-c1csc(n1)C[C@H](NC(=O)[C@H](C(C)C)N(C)C(=O)N1CCN(C(=O)[C@H]3CN3)C[C@H]1C)C(=O)N1CCC[C@H](N1)C(=O)OCC(C)(C)C2` [Example 301], for which the pIC50 at KRAS G12D is 6.00 to 7.00; on KRAS G12S, 7.00 to 8.00; at KRAS G12V it was 6.00 to 7.00; at KRAS G13C, 7.00 to 8.00; on KRAS G13D, 6.00 to 7.00; on KRAS Q61H, 7.00 to 8.00. The negative-log IC50 (pIC50) on KRAS WT, on NRAS G12C, on NRAS Q61K, on NRAS Q61R, at NRAS WT and on KRAS G12C was 7.00 to 8.00 each time.
As to `CCn1c(-c2cccnc2[C@H](C)OC)c2c3cc(ccc31)-c1csc(n1)C[C@H](NC(=O)[C@H](C(C)C)N(C)C(=O)N1CCN(C(=O)[C@@H]3CN3)C[C@H]1C)C(=O)N1CCC[C@H](N1)C(=O)OCC(C)(C)C2` [Example 302], the pIC50 was 6.00 to 7.00 at KRAS G12D; 7.00 to 8.00 on KRAS G12S; 7.00 to 8.00 at KRAS G12V; 6.00 to 7.00 on KRAS G13C; 6.00 to 7.00 on KRAS G13D; 7.00 to 8.00 on KRAS Q61H. Besides, the pIC50 at KRAS WT, on NRAS G12C, on NRAS Q61K, at NRAS Q61R, at NRAS WT and on KRAS G12C was 7.00 to 8.00 each time.
Take `CCn1c(-c2cccnc2[C@H](C)OC)c2c3cc(ccc31)-c1cc(O)cc(c1)C[C@H](NC(=O)[C@H](C(C)C)N1CC[C@]3(CCN(C(=O)[C@@H]4N[C@@H]4C4CC4)C3)C1=O)C(=O)N1CCC[C@H](N1)C(=O)OCC(C)(C)C2` [Example 305]: the pIC50 on KRAS G12D is above 8.00; at KRAS G12S, 7.00 to 8.00; at KRAS G12V it was 7.00 to 8.00; at KRAS G13C, 7.00 to 8.00; on KRAS G13D it was 6.00 to 7.00; on KRAS Q61H it was 7.00 to 8.00. In addition, the pIC50 at KRAS WT is 7.00 to 8.00; on NRAS G12C, 7.00 to 8.00; at NRAS Q61K, 6.00 to 7.00; at NRAS Q61R, 6.00 to 7.00; on NRAS WT, 7.00 to 8.00; on KRAS G12C it was 7.00 to 8.00.
